Experimental data as given in US6150414A, “Compositions and methods for treating viral infections” (priority 1992, dated 2000).
“And” between values parts separate entries of the source, which are not always exact repeats. Identical values can stand only once. Like-named read-outs stand apart in the source and are kept apart here.

How the values were obtained:
[1] = target: T1, Radiation Leukemia Virus reverse transcriptase (Radiation murine leukemia virus, UniProt P11227); experiment: Radiation Leukemia Virus reverse transcriptase assay, supernatants from infected AQR cells (Examples 4 and 9); type: biochemical; settings: for inhibition at 50 ng / inhibition at 0.0001 mg / inhibition at 0.0005 mg / inhibition at 0.001 mg / inhibition at 0.002 mg / inhibition at 0.005 mg / inhibition at 0.01 mg: 0.5 h; for inhibition at 0.01 mg: read-out: Average % Inhibition; for CPM: replicate
T1 construct: the reverse transcriptase of Radiation Leukemia Virus; endogenous in cells
Procedure: Supernatants (10 ml/tube) from B10.T(6R) cells (Meruelo et al. J. Exp. Med. 147: 470-487, 1978) chronically infected with Radiation Leukemia Virus (RadLV) were obtained by centrifugation of cells in culture at 4° C., 3500 rpm for 15 minutes. The top 2/3 of the supernatant were removed and aliquots were incubated for 30 minutes on ice with the indicated amounts of hypericin or protohypericin. […] Thereafter, supernatants were centrifuged at 100,000×g using a TI70 rotor (Beckman Instruments) for 1 hour at 4° C. The pellet was […] and analyzed for reverse transcriptase activity as follows.
The reverse transcriptase assay was performed in a volume of 100 microliters containing the following components:
The antiviral activity of HHA was tested using AQR (Bach and Meruelo, J. Exp. Med. 160:270-285, 1984) cells chronically infected with Radiation Leukemia Virus in the reverse transcriptase assay as described in Example 3 above.
The assays were conducted using the same procedure as in Example 3 above, using supernatants from infected AQR cells.

[2] = test system: Friend Virus; experiment: Friend Virus-induced splenomegaly, WIS compounds (Example 8); type: in vivo, mice; set-up: Actual Spleen Weight / Average Spleen Weight: unit not given here; settings: for Average % Inhibition / Average Spleen Weight / Actual Spleen Weight: Table VII; for Actual Spleen Weight: single animal
Procedure: The effects of compositions according to the present invention on the increase in spleen size (splenomegaly) of BALB/c mice (Jackson Labs, Bar Harbor, ME) was examined. In these experiments, the virus (10^6 focus forming units--FFU) was inoculated intravenously and 100 micrograms of the compounds indicated in Table II were administered to the mice intraperitoneally 24 hours later. Each compound was administered once to two mice. The animals were sacrificed ten days later and their spleens weighed.
As used in Table II (and subsequent Tables of this Example l(a) and (b), "average percent inhibition" is calculated as follows: [formula] wherein "ASWNC" designates "average spleen weight of negative control"; "ASWE" designates "average spleen weight of experimental (treated) subject"; and "ASWPC" designates "average spleen weight of positive control". Average spleen weight is the numerical average of spleen weights of each experimental group (in Table II each such group includes two members).
The AAB compounds whose synthesis is described above were assayed for antiviral activity. WIS-2, -3, -4, -5 and -6 were tested to determine their biological effects on Friend Virus-induced splenomegaly using the procedure and technique set forth in Example 1 above. The assay results (three mice per group were tested each at different concentrationss of the active composition except for the PBS-negative control wherein two animals per group were used) are reported in Table VII below.

[3] = Stability to light and pH; type: physicochemical; settings: irradiation / exposure to light
[4] = test system: retroviruses (virions); experiment: Direct inactivation of retroviruses (virions) in vitro (Example 10); type: biochemical, Radiation Leukemia Virus; settings: Table IX
Outline: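 RadLV-containing supernatants from chronically infected B10.T(6R) cells incubated 30 min on ice with hypericin or protohypericin. Virions then pelleted at 100,000×g for 1 h at 4° C and assayed for reverse transcriptase activity. EC50 is the micromolar concentration inhibiting 50% of virus.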

[5] = test system: virus budding in virus-producing cells; experiment: In vitro inhibition of virus budding: production of defective budded virions (Example 10); type: cell-based; settings: in vitro; Table IX; read-out: EC50 for production of defective budded virions
Excerpt: (§1) The results presented above in Table IX are presented as EC50 concentrations. These are the effective concentrations which inhibit 50% of the viruses in micromolar concentrations.

[6] = test system: Friend Leukemia Virus; experiment: In vivo inhibition of Friend Leukemia Virus splenomegaly, intravenous 1-2 hours post infection (Example 10); set-up: species or system mice; settings: Mus musculus, read-out: EC50 for FV-induced splenomegaly
Procedure: (§2) (3) In vivo inhibition of Friend Leukemia Virus Splenomegaly performed as described in Example 1 above except that the compounds were administered intravenously 1-2 hours post infection.
as §1

[7] = test system: retroviruses; experiment: Comparison over two in vitro and one in vivo biological assays (Example 10); settings: Example 10
Procedure: In order to investigate the structural features of hypericin which are essential for antiretroviral activity, numerous analogs and precursors of hypericin were examined for activity in two in vitro and one in vivo biological assay.
(1) Direct inactivation of retroviruses in vitro, performed as in Example 3 above;
as §2

SMILES: O=c1c2ccccc2c2c3c1c(O)cc(O)c3c1c(O)cc(O)c3c(=O)c4ccccc4c2c31 [WIS-2, Tetrahydroxy-dibenzoperylene-dione]
- inhibition at 50 ng ([1]; 0.05 micrograms, Table VIII): 41.6%
- inhibition at 0.0001 mg ([1]; 0.1 micrograms, Table VIII): 70.8%
- inhibition at 0.0005 mg ([1]; 0.5 micrograms, Table VIII): 98.1%
- inhibition at 0.001 mg ([1]; 1 microgram, Table VIII): 98.7%
- inhibition at 0.002 mg ([1]; 2 micrograms, Table VIII): 99.5%
- inhibition at 0.005 mg ([1]; 5 micrograms, Table VIII): 99.5%
- inhibition at 0.01 mg ([1]; 10 micrograms, Table VIII): 99.5%
- Average % Inhibition ([2]; 1 microgram): 53.9%
- Average Spleen Weight ([2]; 1 microgram): 0.7015
- Actual Spleen Weight ([2]; 1 microgram): 0.6615 and 0.7519 and 0.6912
- Average % Inhibition ([2]; 10 micrograms): 62.7%
- Average Spleen Weight ([2]; 10 micrograms): 0.4701
- Actual Spleen Weight ([2]; 10 micrograms): 0.4263 and 0.4868 and 0.4972
- Average % Inhibition ([2]; 50 micrograms): 64.0%
- Average Spleen Weight ([2]; 50 micrograms): 0.4603
- Actual Spleen Weight ([2]; 50 micrograms): 0.4818 and 0.4925 and 0.4066
- Average % Inhibition ([2]; 150 micrograms): 66.3%
- Average Spleen Weight ([2]; 150 micrograms): 0.4416
- Actual Spleen Weight ([2]; 150 micrograms): 0.4075 and 0.4656 and 0.4517
- stability to light [3]: did not change upon irradiation

SMILES: O=c1c2c(O)ccc3c4ccc(O)c5c(=O)c6c(O)cc(O)c7c8c(O)cc(O)c1c8c(c23)c(c54)c67 [WIS-3, desmethylhypericin]
- Average CPM ([1]; 0.05 micrograms, Table VIII): 78,424 CPM
- CPM ([1]; 0.05 micrograms, Table VIII): 89,170 CPM and 67,678 CPM
- Average CPM ([1]; 0.1 micrograms, Table VIII): 20,893 CPM
- CPM ([1]; 0.1 micrograms, Table VIII): 19,322 CPM and 22,464 CPM
- Average CPM ([1]; 0.5 micrograms, Table VIII): 2,799 CPM
- CPM ([1]; 0.5 micrograms, Table VIII): 2,630 CPM and 2,968 CPM
- Average CPM ([1]; 1 microgram, Table VIII): 24,606 CPM
- CPM ([1]; 1 microgram, Table VIII): 21,896 CPM and 27,316 CPM
- Average CPM ([1]; 2 micrograms, Table VIII): 15,467 CPM
- CPM ([1]; 2 micrograms, Table VIII): 14,020 CPM and 16,914 CPM
- Average CPM ([1]; 5 micrograms, Table VIII): 76,907 CPM
- CPM ([1]; 5 micrograms, Table VIII): 75,776 CPM and 78,038 CPM
- Average CPM ([1]; 10 micrograms, Table VIII): 119,248 CPM
- CPM ([1]; 10 micrograms, Table VIII): 57,512 CPM and 61,736 CPM
- inhibition at 0.01 mg [1]: 85.4%
- inhibition at 50 ng ([1]; 0.05 micrograms, Table VIII): 90.4%
- inhibition at 0.0001 mg ([1]; 0.1 micrograms, Table VIII): 97.4%
- inhibition at 0.0005 mg ([1]; 0.5 micrograms, Table VIII): 99.7%
- inhibition at 0.001 mg ([1]; 1 microgram, Table VIII): 97%
- inhibition at 0.002 mg ([1]; 2 micrograms, Table VIII): 98.1%
- inhibition at 0.005 mg ([1]; 5 micrograms, Table VIII): 90.6%
- inhibition of RadLV reverse transcriptase activity ([1]; Example 9): highest level of antiviral activity of the compounds that were tested in this assay
- Average % Inhibition ([2]; 1 microgram): 24.3%
- Average Spleen Weight ([2]; 1 microgram): 0.7737
- Actual Spleen Weight ([2]; 1 microgram): 0.7527 and 0.8048 and 0.7277
- Average % Inhibition ([2]; 10 micrograms): 24.1%
- Average Spleen Weight ([2]; 10 micrograms): 0.7759
- Actual Spleen Weight ([2]; 10 micrograms): 0.7727 and 0.8108 and 0.7413
- Average % Inhibition ([2]; 50 micrograms): 34.7%
- Average Spleen Weight ([2]; 50 micrograms): 0.6921
- Actual Spleen Weight ([2]; 50 micrograms): 0.6998 and 0.6723 and 0.7041
- Average % Inhibition ([2]; 150 micrograms): 79.7%
- Average Spleen Weight ([2]; 150 micrograms): 0.3290
- Actual Spleen Weight ([2]; 150 micrograms): 0.2967 and 0.3518 and 0.3384
- antiviral activity in splenomegaly assay ([2]; Example 8): most active compounds of the group in the splenomegaly assay
- EC50 [4]: 70 nM
- EC50 [5]: 2000 nM
- EC50 [6]: 174 µM
- activity across assays [7]: high degree of activity in a more than one assay
